Test results as given in US12103916B2, “Antifungal compounds” (University of Kentucky Research Foundation, priority 2016, dated 2024).
Like-named read-outs stand apart in the source and are kept apart here. Marks after values point to notes of the source that are not given here.

Assays:
[1] = system: Aspergillus terreus ATCC MYA-3633; assay: MIC determination, strain M; format: cell-based; settings: Aspergillus terreus, Table 2, all compounds and controls
Description: (§1) For all of our azole derivatives we report their MIC-0 values against C. albicans ATCC 10231 (strain A) and all Aspergillus strains (K-M), which correspond to complete growth inhibition of these fungi. […] The MIC values presented for these five control drugs were either tested herein or correspond to our previously published data^5, 16 as indicated in Table 1.
(§2) Antifungal activity in the absence or presence of serum.
(§3) It is important to note that all comparisons to follow will be done by using the MIC values reported in μg/mL as the data were collected that way. However, we also present in parentheses in Table 2 the corresponding values in micromolar.
(§4) In this manuscript, we performed all activity comparisons by using the MIC values reported in μg/mL (Note: the corresponding MIC values are also provided in μM into parentheses in Tables 1, 2, S1, and S2).

[2] = system: cell membrane integrity of C. albicans ATCC 10231 (strain A); assay: Membrane permeabilization assay (propidium iodide uptake); format: cell-based, Candida albicans; settings: Ex.3 series; 4×MIC
Method: FIG. 20 includes the Effect of the controls VOR (negative) and KANB (C14) (positive) as well as compounds 5-9 on the cell membrane integrity of C. albicans ATCC 10231 (strain A). […] The experiments were performed in duplicate.
PI is a membrane impermeable dye that cannot enter the intact cell unless the cell membrane is damaged. Using these compounds, we also wanted to determine how do the lengths of the alkyl side chains correlate with the membrane disruption potential of these antifungal agents.
Membrane permeabilization assay. […] Based on these findings, we assumed that the hybrids generated in this study could also potentially cause fungal death by disrupting the fungal membrane. To investigate this possible mechanism of action, we evaluated the effect of compounds 20 and 26 on fungal cell membrane integrity by using propidium iodide (PI) dye as a probe (FIG. 12). […] Afterwards, the dye binds to nucleic acid and fluoresces, which can be observed under a fluorescence microscope. […]
Therefore, we decided to study the potential effect of compounds 8 and 9 with C12 and C14 linear alkyl chains to determine the impact of chain length on membrane disruption (FIG. 20). […] The propidium iodide (PI) dye was used as a probe as it can only enter cells with compromised membrane and bind to nucleic acid to emit fluorescence, which can be observed under a fluorescence microscope. […]

[3] = system: C. glabrata ATCC 2001 (strain H); assay: Time-kill assay, strain H; format: cell-based, Candida glabrata; settings: Ex.2 series, compound at 4×MIC, VOR control
Method: FIG. 9A-9D include Representative time-kill curves for compound 20 against FIG. 9A. C. albicans ATCC 10231 (strain A) and FIG. 9B. C. parapsilosis ATCC 22019 (strain J), as well as for compound 22 against FIG. 9C. C. glabrata ATCC 2001 (strain H), and FIG. 9D. strain J. Fungal strains were treated with no drug (black circles), 1×MIC (white circles), 4×MIC (inverted black triangles), or 8×MIC (white triangles) of compounds 20 or 22, or with 1×MIC (black squares) or 4×MIC (white squares) of VOR. The detection limit of this assay was 100 CFU/mL (represented by the red line in panels A and C).
Time-kill assays. To determine if the antifungal activity of the alkylated piperazine-azole hybrids is fungistatic or fungicidal, we performed time-kill assays over 24-hour periods by using compounds 20 and 22, each against two fungal strains (strains A and J for 20; H and J for 22) (FIG. 9).

[4] = system: C. albicans ATCC MYA-1237(R); assay: MIC determination, strain F; format: cell-based, Candida albicans; settings: Candida albicans
Description: as §1, §2, §3, §4

[5] = system: Candida parapsilosis ATCC 22019; settings: Table 1; strain J; control azoles; previously reported (refs 5, 16); cited from earlier work
[6] = system: C. albicans ATCC MYA-1003(R); assay: MIC determination, strain G; format: cell-based, Candida albicans; settings: Candida albicans
Description: as §1, §2, §3, §4

[7] = system: Aspergillus terreus ATCC MYA-3633; settings: Table 1; strain M; control azoles; previously reported (refs 5, 16); cited from earlier work
C. albicans ATCC 64124 = settings: Table 1; strain B; control azoles; previously reported (refs 5, 16); cited from earlier work
[8] = read-out: MIC (MIC-2), in parentheses

For `C[C@@H](c1ncncc1F)[C@](O)(Cn1cncn1)c1ccc(F)cc1F` [VOR, voriconazole], the MIC ([1]; read-out: MIC (MIC-0)) was 0.12 µg/mL, the MIC ([1]; read-out: MIC (MIC-0), in parentheses) was 0.34 µM and the “PI dye uptake by fungal cells” value [2] was “did not allow for PI uptake”. For the same compound, the “effect in time-kill assay” value [3] was “fungistatic”, the MIC ([4]; read-out: MIC (MIC-2)) was 7.8 µg/mL and the MIC [4, 8] was 22.3 µM. For the same compound, the “MIC (MIC-2)” value [5] was <0.03^c μg/mL, the MIC ([6]; read-out: MIC (MIC-2)) was 1.95 µg/mL and the MIC [6, 8] was 5.6 µM. The “MIC (MIC-2)” value [7] was 0.12^c μg/mL and the “MIC (MIC-2)” value (C. albicans ATCC 64124) was 3.9^c μg/mL.
